Structures are written as SMILES.

The test system of this test is aortic wall hypoxia-induced rat AAA model. Nature of the test: Aortic wall hypoxia-induced rat AAA model: non-rupture survival / mortality due to rupture. The class given is in vivo. The following applies: day of operation to Day 28 post operation, versus control group; trend toward improvement in survival rate. The text has this: The action of Compound 1 and pitavastatin in rat AAA models (Non-Patent Document 3) induced by operation were examined. In the operation, the aortic wall of each model was separated from the surrounding tissues. After a catheter was inserted, the abdominal aorta was ligated together with a catheter with a thread was studied.
In the test, Compound 1 was manufactured according to the method disclosed in Patent Document 1 and mixed, in a proportion of 0.15%, with a normal diet (FR2, manufactured by Funabashi Farm Co., Ltd.), and the Compound 1-mixed diet was used. In regard to pitavastatin, 0.003% of pitavastatin calcium was mixed with a normal diet(FR2, manufactured by Funabashi Farm Co., Ltd.) and the pitavastatin-mixed diet was used.
Sprague-Dawley male rats (300 to 350 g: Japan SLC, Inc.) were used in the experiment. The rats were reared at room temperature of 25° C.±1° C., and allowed to freely take the feed and water.
The model was created according to the method disclosed in Non-Patent Document 3. Specifically, a rat AAA model was created by separating the rat aortic wall from the surrounding tissue, inserting a polyurethane catheter, and then ligating the abdominal aorta together with a plastic catheter with a monofilament thread, and inducing AAA. […]
In each group, up to 28 days post operation, the aneurysm diameter was measured by echo and comparison in survival was made. […]

In the case of `O=C(NCCCOc1ccc2[nH]c(=O)ccc2c1)N(C1CC1)[C@@H]1CCCC[C@H]1O` [Compound 1, (−)-6-[3-[3-cyclopropyl-3-[(1R,2R)-2-hydroxycyclohexyl]ureido]propoxy]-2(1H)-quinolinone], the “mortality rates due to rupture” value was “lower than that in the control group”.

These data come from patent US20220184058A1, “PHARMACEUTICAL COMPOSITION FOR TREATING AORTIC ANEURYSM” (National University Corporation Hamamatsu University School …, priority 2019, published 2022).
